From ChEMBL document CHEMBL1131963, “Novel benzo-fused lactam scaffolds as factor Xa inhibitors” (Bioorg Med Chem Lett, 1999)

Columns and labels:
Coagulation factor X [1] = molecular target: T1, Coagulation factor X (Homo sapiens, UniProt P00742); assay: In vitro inhibitory activity against human enzyme Coagulation factor X
Plasminogen = Plasminogen (Homo sapiens, UniProt P00747); assay: In vitro inhibitory activity against human enzyme plasmin
Prothrombin [2] = molecular target: T2, Prothrombin (Homo sapiens, UniProt P00734); assay: In vitro inhibitory activity against human enzyme thrombin
Serine protease 1 [3] = molecular target: T3, Serine protease 1 (Homo sapiens, UniProt P07477); assay: In vitro inhibitory activity against human enzyme trypsin
T3 sequence (P07477 whole entry): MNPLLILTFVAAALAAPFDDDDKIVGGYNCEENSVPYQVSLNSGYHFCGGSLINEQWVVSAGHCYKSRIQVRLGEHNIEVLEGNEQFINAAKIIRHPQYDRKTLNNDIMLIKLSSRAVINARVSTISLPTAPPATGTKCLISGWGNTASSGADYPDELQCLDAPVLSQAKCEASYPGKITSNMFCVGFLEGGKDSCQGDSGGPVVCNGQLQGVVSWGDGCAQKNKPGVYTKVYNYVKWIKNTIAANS

Coagulation factor X [4] = molecular target: T1, Coagulation factor X; assay: In vitro inhibitory activity against human prothrombinase
[5] = Ratio against factor Xa to prothrombinase
Serine protease 1 [6] = molecular target: T3, Serine protease 1; assay: In vitro evaluation of inhibition of cleavage of the chromogenic substrate by human enzyme trypsin
Prothrombin [7] = molecular target: T2, Prothrombin; assay: In vitro inhibitory activity against by human enzyme thrombin
Coagulation factor X [8] = molecular target: T1, Coagulation factor X; assay: In vitro inhibitory activity against prothrombinase

Plasminogen, sequence (P00747 97-580 limits assumed): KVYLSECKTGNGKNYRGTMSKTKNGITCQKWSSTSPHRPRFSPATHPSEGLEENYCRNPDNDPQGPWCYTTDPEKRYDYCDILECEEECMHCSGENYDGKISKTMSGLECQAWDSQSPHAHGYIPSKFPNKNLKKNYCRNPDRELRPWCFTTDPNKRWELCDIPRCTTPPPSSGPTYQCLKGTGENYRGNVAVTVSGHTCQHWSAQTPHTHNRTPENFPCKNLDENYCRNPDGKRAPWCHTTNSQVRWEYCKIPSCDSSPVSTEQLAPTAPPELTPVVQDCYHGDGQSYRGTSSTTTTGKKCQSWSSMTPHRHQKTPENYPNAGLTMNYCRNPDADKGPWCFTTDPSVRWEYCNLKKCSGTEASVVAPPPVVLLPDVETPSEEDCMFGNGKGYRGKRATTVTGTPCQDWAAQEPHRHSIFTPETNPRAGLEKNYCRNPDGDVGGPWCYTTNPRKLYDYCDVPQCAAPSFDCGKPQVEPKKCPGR
Plasminogen, sequence (P00747 581-810 limits assumed): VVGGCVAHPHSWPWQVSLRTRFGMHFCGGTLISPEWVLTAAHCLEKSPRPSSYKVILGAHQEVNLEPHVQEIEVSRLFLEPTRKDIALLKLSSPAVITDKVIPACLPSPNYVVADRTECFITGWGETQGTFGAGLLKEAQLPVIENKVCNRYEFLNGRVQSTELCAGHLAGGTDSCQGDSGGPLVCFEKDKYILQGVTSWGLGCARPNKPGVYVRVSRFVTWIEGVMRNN
T1 sequence (P00742 41-179 limits assumed): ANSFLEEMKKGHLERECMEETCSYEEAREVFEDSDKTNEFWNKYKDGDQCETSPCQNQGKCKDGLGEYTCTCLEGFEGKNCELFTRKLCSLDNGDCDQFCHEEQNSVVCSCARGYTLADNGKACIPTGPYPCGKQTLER
T1 sequence (P00742 235-488 limits assumed): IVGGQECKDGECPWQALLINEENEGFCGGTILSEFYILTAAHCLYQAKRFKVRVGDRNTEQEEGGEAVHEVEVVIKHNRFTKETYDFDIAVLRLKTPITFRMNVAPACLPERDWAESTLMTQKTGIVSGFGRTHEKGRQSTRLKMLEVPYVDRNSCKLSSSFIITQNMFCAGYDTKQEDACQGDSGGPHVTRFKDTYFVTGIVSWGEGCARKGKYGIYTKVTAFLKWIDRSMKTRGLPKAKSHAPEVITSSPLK

| SMILES | IC50 (Coagulation factor X [1]) [nM] | IC50 (Plasminogen) [nM] | IC50 (Prothrombin [2]) [nM] | IC50 (Serine protease 1 [3]) [nM] | IC50 (Coagulation factor X [4]) [nM] | Ratio [5] | IC50 (Serine protease 1 [6]) [nM] | IC50 (Prothrombin [7]) [nM] | IC50 (Coagulation factor X [8]) [nM] |
| --- | --- | --- | --- | --- | --- | --- | --- | --- | --- |
| N=C(N)N1CCC[C@H](NC(=O)CN2C(=O)[C@H](NS(=O)(=O)Cc3ccccc3)CCc3ccccc32)C1O (some centres not stated) | 49 | > 2500 | 192 | 135 | – | – | – | – | – |
| N=C(N)N1CCC[C@H](NC(=O)CN2CCCC[C@H](NS(=O)(=O)Cc3ccccc3)C2=O)C1O (some centres not stated) | 20.6 | > 2500 | – | 75 | – | – | – | – | – |
| COc1ccc2c(c1)CC[C@H](NS(=O)(=O)c1ccc3ccccc3c1)C(=O)N2CC(=O)N[C@H]1CCCN(C(=N)N)C1O (some centres not stated) | 3.6 | > 2500 | – | – | 19.1 | 5.3 | 27 | 285 | – |
| N=C(N)N1CCC[C@H](NC(=O)CN2C(=O)[C@@H](NS(=O)(=O)Cc3ccccc3)CCc3ccccc32)C1O (some centres not stated) | 7.3 | > 2500 | 178 | 26 | 17.1 | 2.3 | – | – | – |
| N=C(N)N1CCC[C@H](NC(=O)CN2C(=O)C(NS(=O)(=O)Cc3ccccc3)Cc3ccccc32)C1O (some centres not stated) | > 2500 | > 2500 | 17.9 | 289 | – | – | – | – | – |

The remaining lines, values ahead:

| IC50 (Coagulation factor X [1]) [nM] | IC50 (Plasminogen) [nM] | IC50 (Prothrombin [2]) [nM] | IC50 (Serine protease 1 [3]) [nM] | IC50 (Coagulation factor X [4]) [nM] | Ratio [5] | IC50 (Serine protease 1 [6]) [nM] | IC50 (Prothrombin [7]) [nM] | IC50 (Coagulation factor X [8]) [nM] | SMILES |
| --- | --- | --- | --- | --- | --- | --- | --- | --- | --- |
| 28.9 | > 2500 | > 2500 | – | 64.3 | 2.2 | 40 | – | – | COc1ccc2c(c1)N(CC(=O)N[C@H]1CCCN(C(=N)N)C1O)C(=O)[C@@H](NS(=O)(=O)Cc1ccccc1)CC2 (some centres not stated) |
| 8.6 | > 2500 | 235 | – | 26.7 | 3.1 | 77 | – | – | COc1cccc2c1CC[C@H](NS(=O)(=O)Cc1ccccc1)C(=O)N2CC(=O)N[C@H]1CCCN(C(=N)N)C1O (some centres not stated) |
| 7.2 | > 2500 | > 2500 | – | 34.9 | 4.8 | 110 | – | – | COc1ccc2c(c1)CC[C@H](NS(=O)(=O)Cc1ccccc1)C(=O)N2CC(=O)N[C@H]1CCCN(C(=N)N)C1O (some centres not stated) |
| 1.9 | > 2500 | 829 | 1.5 | – | 5.2 | – | – | 9.9 | COc1ccc2c(c1)CC[C@H](NS(=O)(=O)CC1CCCCC1)C(=O)N2CC(=O)N[C@H]1CCCN(C(=N)N)C1O (some centres not stated) |
